Source: patent US11085056B2, “Transfection complexes and methods of using the same” (MOLECULAR TRANSFER, INC., priority 2015, dated 2021)

Tests used:
[1] = system: HuVec Cells; assay: Transfection of HuVec cells with DOTMA/DOPE/peptide and eGFP plasmid, fluorescent plate reader; format: cell-based; conditions: DOTMA/DOPE 1:1 plus peptide with RRRRRRRRRRRR (SEQ ID NO: 109) at n terminus; EF1Alpha eGFP plasmid; 0.01 mL complex; 42 hours
Protocol: (§1) Cells were plated to so that on the day of transfection the cells were 60-70% confluent in 96 well tissue culture plates. A DOMTA/DOPE Lipid solution (1:1 molar ratio) at 2 mg/mL in water were mixed with an equal volume of surface ligand peptides that had the nucleic acid binding moiety RRRRRRRRRRRR (SEQ ID NO: 109) covalently linked to the n terminus of each peptide during peptide synthesis. Peptides were at 2 mg/mL in water. The DOTMA/DOPE and the surface ligand peptide solution the transfection reagent was diluted 1 to 1 (v/v) in water. DOMTA/DOPE/PEPTIDE solutions were added to 0.1 mL of a plasmid DNA solution (EF1Alpha eGFP plasmid) at 5 μg/mL in OptiMEM. Lipofectamine 2000 was obtained from Life Technologies.
(§2) All solutions were at room temperature. A volume of 0.2 mL of a 5 μg/mL solution of DNA was aliquoted into each well of a non-tissue cultured treated plate. 4.0 μL of transfection reagents were added to DNA solutions respectively. The transfection reagent and DNA solution was mixed by pipetting up and down twice. Transfection complexes were formed for 10 minutes. After 10 minutes, 0.01 or 0.02 mL of the transfection complex was added to cells. HuVEC, HeLa, human adult keratinocytes, human primary adult fibroblast, and rat cortical neurons all respectively received 0.01 mL of the tramsfectopm complex. Human skeletal muscle cells, mouse C2C12 cells, Jurkat, and THP-1 cells received 0.02 mL of the transfection complex. Cells were incubated for 42 hours at 37° C. at 5% CO2. Plates were read on a fluorescent plate reader. Cells were also examined visually under a microscope to assess the extent of transfection (in terms of the percent of cells transfected) with a fluorescent microscope. Other modes of analysis, for example quantification with B-galactosidase or luciferase reports plasmids can also be used. […] Surface ligand that caused increase expression of GFP over the lipid DOTMA with no surface ligand were considered to enhance transfection or had higher % cells transfected were considered to enhance transfection. Peptides that gave greater than 2 fold enhancement are noted in bold and could be further optimized by adding different transfection enhancers or could be used with different cationic lipids or polymers.

[2] = system: C2C12 Cells; assay: Transfection of C2C12 cells with DOTMA/DOPE/peptide and eGFP plasmid, fluorescent plate reader; format: cell-based, mouse; conditions: DOTMA/DOPE 1:1 plus peptide with RRRRRRRRRRRR (SEQ ID NO: 109) at n terminus; EF1Alpha eGFP plasmid; 0.02 mL complex; 42 hours
Protocol: as §1, §2

[3] = system: NL-1 iPS Cells; assay: Transfection of NL-1 iPS cells with DOTMA/DOPE/peptide and eGFP plasmid, fluorescent plate reader; format: cell-based; conditions: DOTMA/DOPE 1:1 plus peptide with RRRRRRRRRRRR (SEQ ID NO: 109) at n terminus; EF1Alpha eGFP plasmid; 42 hours
Protocol: as §1, §2

[4] = system: HeLa Cells; assay: Transfection of HeLa cells with DOTMA/DOPE/peptide and eGFP plasmid, fluorescent plate reader; format: cell-based; conditions: DOTMA/DOPE 1:1 plus peptide with RRRRRRRRRRRR (SEQ ID NO: 109) at n terminus; EF1Alpha eGFP plasmid; 0.01 mL complex; 42 hours
Protocol: as §1, §2

[5] = system: Jurkat Cells; assay: Transfection of Jurkat cells with DOTMA/DOPE/peptide and eGFP plasmid, fluorescent plate reader; format: cell-based; conditions: DOTMA/DOPE 1:1 plus peptide with RRRRRRRRRRRR (SEQ ID NO: 109) at n terminus; EF1Alpha eGFP plasmid; 0.02 mL complex; 42 hours
Protocol: as §1, §2

[6] = system: some examined cell types; assay: Transfection expression and % cells transfected over the no peptide control; format: cell-based; conditions: on some examined cell types
Protocol: as §1, §2

[7] = system: Human Fibroblast Cells; assay: Transfection of human fibroblast cells with DOTMA/DOPE/peptide and eGFP plasmid, fluorescent plate reader; format: cell-based; conditions: DOTMA/DOPE 1:1 plus peptide with RRRRRRRRRRRR (SEQ ID NO: 109) at n terminus; EF1Alpha eGFP plasmid; 0.01 mL complex; 42 hours
Protocol: as §1, §2

[8] = system: HeLa Cells; assay: Transfection of HeLa cells with DOTMA/SEQ ID NO: 72/peptide compared with Lipofectamine 2000; format: cell-based; conditions: fusogenic peptide 0.1 mg/mL
Protocol: as §1, §2
The fusogenic peptide was added to the DOMTA/peptide formulation to achieve a final concentration of 0.1 mg/mL to see if transfection reagents were further enhanced by the addition of a fusogenic peptide and could provide higher transfection efficiency into HeLa cells and expression than the commercially available Lipofectamine 2000.

[9] = 0.1 μL of DOTMA/SEQ ID NO: 72/Peptide in well of a 96 well plate
[10] = 0.2 μL of DOTMA/SEQ ID NO: 72/Peptide in well of a 96 well plate
[11] = 0.3 μL of DOTMA/SEQ ID NO: 72/Peptide in well of a 96 well plate
[12] = 0.4 μL of DOTMA/SEQ ID NO: 72/Peptide in well of a 96 well plate

229 (PPFLMLLKGSTR; Peptidic transfection agent) [compound 229]
RF (Relative Fluorescence) of Transfection of HuVec Cells [1]: 5452 | RF (Relative Fluorescence) of Transfection of C2C12 Cells [2]: 1164 | RF (Relative Fluorescence) of Transfection of NL-1 iPS Cells [3]: 13491 | RF (Relative Fluorescence) of Transfection of HeLa Cells [4]: 8816 | RF (Relative Fluorescence) of Transfection of Jurkat Cells [5]: 8079 | transfection expression and the % cells transfected over the no peptide control [6]: increased | RF (Relative Fluorescence) of Transfection of Human Fibroblast Cells [7]: 6811

335 (TVFSVDQDNMLE; Peptidic transfection agent) [compound 335]
RF (Relative Fluorescence) of Transfection of HuVec Cells [1]: 6350 | RF (Relative Fluorescence) of Transfection of C2C12 Cells [2]: 4689 | RF (Relative Fluorescence) of Transfection of NL-1 iPS Cells [3]: 14424 | RF (Relative Fluorescence), DOTMA/SEQ ID NO: 72/Peptide, HeLa Cells [8, 9]: 12866 | RF (Relative Fluorescence), DOTMA/SEQ ID NO: 72/Peptide, HeLa Cells [8, 10]: 12458 | RF (Relative Fluorescence), DOTMA/SEQ ID NO: 72/Peptide, HeLa Cells [8, 11]: 11547 | RF (Relative Fluorescence), DOTMA/SEQ ID NO: 72/Peptide, HeLa Cells [8, 12]: 9753 | RF (Relative Fluorescence) of Transfection of HeLa Cells [4]: 26954 | RF (Relative Fluorescence) of Transfection of Jurkat Cells [5]: 4567 | RF (Relative Fluorescence) of Transfection of Human Fibroblast Cells [7]: 8534

349 (RNIAEIIKDI; Peptidic transfection agent) [compound 349]
RF (Relative Fluorescence) of Transfection of HuVec Cells [1]: 22907 | RF (Relative Fluorescence) of Transfection of NL-1 iPS Cells [3]: 33103 | RF (Relative Fluorescence) of Transfection of HeLa Cells [4]: 4433 | RF (Relative Fluorescence) of Transfection of Jurkat Cells [5]: 23167 | transfection expression and the % cells transfected over the no peptide control [6]: increased | RF (Relative Fluorescence) of Transfection of Human Fibroblast Cells [7]: 8810

216 (YRVRVTPKEKTGPMKE; Peptidic transfection agent) [compound 216]
RF (Relative Fluorescence) of Transfection of HuVec Cells [1]: 14693 | RF (Relative Fluorescence) of Transfection of C2C12 Cells [2]: 1001 | RF (Relative Fluorescence) of Transfection of NL-1 iPS Cells [3]: 19626 | RF (Relative Fluorescence) of Transfection of HeLa Cells [4]: 6181 | RF (Relative Fluorescence) of Transfection of Jurkat Cells [5]: 3570 | transfection expression and the % cells transfected over the no peptide control [6]: increased | RF (Relative Fluorescence) of Transfection of Human Fibroblast Cells [7]: 3117

393 (LGTIPG; Peptidic transfection agent) [compound 393]
transfection expression and the % cells transfected over the no peptide control [6]: increased

338 (GTPGPQGIA; Peptidic transfection agent) [compound 338]
RF (Relative Fluorescence) of Transfection of HuVec Cells [1]: 12000 | RF (Relative Fluorescence) of Transfection of C2C12 Cells [2]: 2290 | RF (Relative Fluorescence) of Transfection of NL-1 iPS Cells [3]: 17288 | RF (Relative Fluorescence) of Transfection of HeLa Cells [4]: 6241 | RF (Relative Fluorescence) of Transfection of Jurkat Cells [5]: 4475 | transfection expression and the % cells transfected over the no peptide control [6]: increased | RF (Relative Fluorescence) of Transfection of Human Fibroblast Cells [7]: 5625

501 (DLGTAGSCLRRFSTM; Peptidic transfection agent) [compound 501]
RF (Relative Fluorescence) of Transfection of C2C12 Cells [2]: 5913 | RF (Relative Fluorescence), DOTMA/SEQ ID NO: 72/Peptide, HeLa Cells [8, 9]: 23571 | RF (Relative Fluorescence), DOTMA/SEQ ID NO: 72/Peptide, HeLa Cells [8, 10]: 23993 | RF (Relative Fluorescence), DOTMA/SEQ ID NO: 72/Peptide, HeLa Cells [8, 11]: 20410 | RF (Relative Fluorescence), DOTMA/SEQ ID NO: 72/Peptide, HeLa Cells [8, 12]: 14749 | RF (Relative Fluorescence) of Transfection of Jurkat Cells [5]: 12350 | transfection expression and the % cells transfected over the no peptide control [6]: increased | RF (Relative Fluorescence) of Transfection of Human Fibroblast Cells [7]: 9473
